Reference: PubChem BioAssay (NCI)
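Grown in 96-well plates, cells were treated for 48 hours with each compound at five concentrations. Insufficient inhibition: endpoint recorded as highest concentration tested. TGI marks complete inhibition of growth.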

Experiments:
Test in all cases: growth of human tumour cells (NCI), 48 h
HCC-2998 colon = system: HCC-2998 colon
MOLT-4 leukemia = system: MOLT-4 leukemia
SK-MEL-5 melanoma = system: SK-MEL-5 melanoma
NCI-H522 lung = system: NCI-H522 lung
MDA-MB-435 = system: MDA-MB-435
SK-OV-3 ovarian = system: SK-OV-3 ovarian
UO-31 renal = system: UO-31 renal
PC-3 prostate = system: PC-3 prostate
SK-MEL-2 melanoma = system: SK-MEL-2 melanoma
SNB-19 CNS = system: SNB-19 CNS
MCF7 breast = system: MCF7 breast
HL-60(TB) leukemia = system: HL-60(TB) leukemia
BT-549 breast = system: BT-549 breast
K-562 leukemia = system: K-562 leukemia
LOX IMVI melanoma = system: LOX IMVI melanoma
CAKI-1 renal = system: CAKI-1 renal
MDA-N = system: MDA-N
M14 melanoma = system: M14 melanoma
CCRF-CEM leukemia = system: CCRF-CEM leukemia
786-0 renal = system: 786-0 renal
SN12C renal = system: SN12C renal
NCI/ADR-RES ovarian = system: NCI/ADR-RES ovarian
T-47D breast = system: T-47D breast
HS 578T breast = system: HS 578T breast
UACC-257 melanoma = system: UACC-257 melanoma
NCI-H23 lung = system: NCI-H23 lung
DU-145 prostate = system: DU-145 prostate
SNB-75 CNS = system: SNB-75 CNS
RXF 393 renal = system: RXF 393 renal
ACHN renal = system: ACHN renal
A498 renal = system: A498 renal
SK-MEL-28 melanoma = system: SK-MEL-28 melanoma
TK-10 renal = system: TK-10 renal
COLO 205 colon = system: COLO 205 colon
EKVX NSCLC = system: EKVX NSCLC
RPMI-8226 leukemia = system: RPMI-8226 leukemia
OVCAR-5 ovarian = system: OVCAR-5 ovarian
HCT-116 colon = system: HCT-116 colon
UACC-62 melanoma = system: UACC-62 melanoma
HOP-62 NSCLC = system: HOP-62 NSCLC
U251 CNS = system: U251 CNS
HT29 colon = system: HT29 colon
HOP-92 NSCLC = system: HOP-92 NSCLC
SR leukemia = system: SR leukemia
IGROV1 ovarian = system: IGROV1 ovarian
MDA-MB-231 breast = system: MDA-MB-231 breast
NCI-H226 lung = system: NCI-H226 lung
A549 NSCLC = system: A549 NSCLC
SF-295 CNS = system: SF-295 CNS
KM12 colon = system: KM12 colon
NCI-H460 lung = system: NCI-H460 lung
OVCAR-8 ovarian = system: OVCAR-8 ovarian
SW-620 colon = system: SW-620 colon
MALME-3M melanoma = system: MALME-3M melanoma
OVCAR-4 ovarian = system: OVCAR-4 ovarian
SF-268 CNS = system: SF-268 CNS
HCT-15 colon = system: HCT-15 colon
SF-539 CNS = system: SF-539 CNS
OVCAR-3 ovarian = system: OVCAR-3 ovarian

## Cc1nnc(-n2c(O)cc(=O)n(-c3ccccc3)c2=S)nc1/C=C/c1ccc(N(C)C)cc1
HCC-2998 colon
  TGI: 22.7 µM
MOLT-4 leukemia
  TGI: > 100 µM
SK-MEL-5 melanoma
  TGI: 21.9 µM
NCI-H522 lung
  TGI: 8.33 µM
MDA-MB-435
  TGI: 23.8 µM
SK-OV-3 ovarian
  TGI: > 72 µM
UO-31 renal
  TGI: 19.9 µM
PC-3 prostate
  TGI: > 46.2 µM
SK-MEL-2 melanoma
  TGI: 41.8 µM
SNB-19 CNS
  TGI: > 63 µM
MCF7 breast
  TGI: > 40.9 µM
HL-60(TB) leukemia
  TGI: 7.1 µM
BT-549 breast
  TGI: > 70.7 µM
K-562 leukemia
  TGI: 49.9 µM
LOX IMVI melanoma
  TGI: 17.5 µM
CAKI-1 renal
  TGI: > 57 µM
MDA-N
  TGI: > 100 µM
M14 melanoma
  TGI: > 100 µM
CCRF-CEM leukemia
  TGI: > 100 µM
786-0 renal
  TGI: > 59.4 µM
SN12C renal
  TGI: > 96.1 µM
NCI/ADR-RES ovarian
  TGI: > 100 µM
T-47D breast
  TGI: > 60.7 µM
HS 578T breast
  TGI: 56.3 µM
UACC-257 melanoma
  TGI: > 55.8 µM
NCI-H23 lung
  TGI: 69.4 µM
DU-145 prostate
  TGI: > 90.1 µM
SNB-75 CNS
  TGI: 21.1 µM
RXF 393 renal
  TGI: > 58.5 µM
ACHN renal
  TGI: > 49.5 µM
A498 renal
  TGI: > 55 µM
SK-MEL-28 melanoma
  TGI: > 50.6 µM
TK-10 renal
  TGI: > 56.5 µM
COLO 205 colon
  TGI: 21.2 µM
EKVX NSCLC
  TGI: > 100 µM
RPMI-8226 leukemia
  TGI: > 100 µM
OVCAR-5 ovarian
  TGI: > 75.3 µM
HCT-116 colon
  TGI: > 55.7 µM
UACC-62 melanoma
  TGI: > 46.8 µM
HOP-62 NSCLC
  TGI: > 100 µM
U251 CNS
  TGI: > 46.4 µM
HT29 colon
  TGI: > 100 µM
HOP-92 NSCLC
  TGI: > 71.9 µM
SR leukemia
  TGI: > 100 µM
IGROV1 ovarian
  TGI: 34.2 µM
MDA-MB-231 breast
  TGI: > 55.7 µM
NCI-H226 lung
  TGI: > 100 µM
A549 NSCLC
  TGI: > 59 µM
SF-295 CNS
  TGI: > 62.2 µM
KM12 colon
  TGI: 21 µM
NCI-H460 lung
  TGI: > 54.8 µM
OVCAR-8 ovarian
  TGI: > 80.2 µM
SW-620 colon
  TGI: > 52.9 µM
MALME-3M melanoma
  TGI: 8.38 µM
OVCAR-4 ovarian
  TGI: > 58.1 µM
SF-268 CNS
  TGI: > 53.8 µM
HCT-15 colon
  TGI: 13.5 µM

## Nc1nc(-c2cccc([N+](=O)[O-])c2)cc(-c2cc(-c3cccc([N+](=O)[O-])c3)nc(N)n2)n1
HCC-2998 colon
  TGI: > 100 µM
MOLT-4 leukemia
  TGI: > 100 µM
SK-MEL-5 melanoma
  TGI: > 100 µM
NCI-H522 lung
  TGI: > 100 µM
MDA-MB-435
  TGI: > 100 µM
SK-OV-3 ovarian
  TGI: > 100 µM
UO-31 renal
  TGI: > 100 µM
PC-3 prostate
  TGI: > 100 µM
SF-539 CNS
  TGI: > 100 µM
SK-MEL-2 melanoma
  TGI: > 100 µM
SNB-19 CNS
  TGI: > 100 µM
MCF7 breast
  TGI: > 100 µM
HL-60(TB) leukemia
  TGI: > 100 µM
BT-549 breast
  TGI: > 100 µM
K-562 leukemia
  TGI: > 100 µM
LOX IMVI melanoma
  TGI: > 100 µM
CAKI-1 renal
  TGI: > 100 µM
OVCAR-3 ovarian
  TGI: > 100 µM
MDA-N
  TGI: > 100 µM
M14 melanoma
  TGI: > 100 µM
786-0 renal
  TGI: > 100 µM
SN12C renal
  TGI: > 100 µM
NCI/ADR-RES ovarian
  TGI: > 100 µM
T-47D breast
  TGI: > 100 µM
HS 578T breast
  TGI: > 100 µM
UACC-257 melanoma
  TGI: > 100 µM
NCI-H23 lung
  TGI: > 100 µM
DU-145 prostate
  TGI: > 100 µM
RXF 393 renal
  TGI: > 100 µM
ACHN renal
  TGI: > 100 µM
A498 renal
  TGI: > 100 µM
SK-MEL-28 melanoma
  TGI: > 100 µM
TK-10 renal
  TGI: > 100 µM
COLO 205 colon
  TGI: > 100 µM
EKVX NSCLC
  TGI: > 100 µM
RPMI-8226 leukemia
  TGI: > 100 µM
OVCAR-5 ovarian
  TGI: > 100 µM
HCT-116 colon
  TGI: > 100 µM
UACC-62 melanoma
  TGI: > 100 µM
HOP-62 NSCLC
  TGI: > 100 µM
U251 CNS
  TGI: > 100 µM
HT29 colon
  TGI: > 100 µM
HOP-92 NSCLC
  TGI: > 100 µM
SR leukemia
  TGI: > 100 µM
IGROV1 ovarian
  TGI: > 100 µM
MDA-MB-231 breast
  TGI: > 100 µM
NCI-H226 lung
  TGI: > 100 µM
A549 NSCLC
  TGI: > 100 µM
SF-295 CNS
  TGI: > 100 µM
KM12 colon
  TGI: > 100 µM
NCI-H460 lung
  TGI: > 100 µM
OVCAR-8 ovarian
  TGI: > 100 µM
SW-620 colon
  TGI: > 100 µM
MALME-3M melanoma
  TGI: > 100 µM
OVCAR-4 ovarian
  TGI: > 100 µM
SF-268 CNS
  TGI: > 100 µM
HCT-15 colon
  TGI: > 100 µM

## COc1ccc2cc(C(=O)NCCCNC(=O)c3ccc4cc(OC)ccc4c3)ccc2c1
HCC-2998 colon
  TGI: > 100 µM
MOLT-4 leukemia
  TGI: > 100 µM
SK-MEL-5 melanoma
  TGI: > 100 µM
NCI-H522 lung
  TGI: > 100 µM
MDA-MB-435
  TGI: > 100 µM
SK-OV-3 ovarian
  TGI: > 65 µM
UO-31 renal
  TGI: > 100 µM
PC-3 prostate
  TGI: > 100 µM
SF-539 CNS
  TGI: 7.99 µM
SK-MEL-2 melanoma
  TGI: > 100 µM
SNB-19 CNS
  TGI: 30.6 µM
MCF7 breast
  TGI: > 100 µM
HL-60(TB) leukemia
  TGI: > 100 µM
BT-549 breast
  TGI: > 100 µM
K-562 leukemia
  TGI: > 100 µM
LOX IMVI melanoma
  TGI: > 100 µM
CAKI-1 renal
  TGI: > 100 µM
OVCAR-3 ovarian
  TGI: > 100 µM
MDA-N
  TGI: > 100 µM
M14 melanoma
  TGI: > 100 µM
CCRF-CEM leukemia
  TGI: > 100 µM
786-0 renal
  TGI: 57.5 µM
SN12C renal
  TGI: > 100 µM
NCI/ADR-RES ovarian
  TGI: > 100 µM
T-47D breast
  TGI: > 100 µM
HS 578T breast
  TGI: > 100 µM
UACC-257 melanoma
  TGI: > 100 µM
NCI-H23 lung
  TGI: > 100 µM
DU-145 prostate
  TGI: > 100 µM
SNB-75 CNS
  TGI: 50.5 µM
RXF 393 renal
  TGI: 39.6 µM
ACHN renal
  TGI: > 100 µM
A498 renal
  TGI: > 100 µM
SK-MEL-28 melanoma
  TGI: > 100 µM
TK-10 renal
  TGI: > 100 µM
COLO 205 colon
  TGI: > 100 µM
EKVX NSCLC
  TGI: > 100 µM
RPMI-8226 leukemia
  TGI: > 100 µM
OVCAR-5 ovarian
  TGI: > 100 µM
HCT-116 colon
  TGI: > 100 µM
UACC-62 melanoma
  TGI: > 100 µM
HOP-62 NSCLC
  TGI: 42.1 µM
U251 CNS
  TGI: > 85.4 µM
HT29 colon
  TGI: > 100 µM
HOP-92 NSCLC
  TGI: 45.2 µM
SR leukemia
  TGI: > 100 µM
IGROV1 ovarian
  TGI: > 100 µM
MDA-MB-231 breast
  TGI: > 74.4 µM
NCI-H226 lung
  TGI: > 100 µM
A549 NSCLC
  TGI: > 100 µM
SF-295 CNS
  TGI: > 83.8 µM
KM12 colon
  TGI: > 100 µM
NCI-H460 lung
  TGI: > 100 µM
OVCAR-8 ovarian
  TGI: > 66.3 µM
SW-620 colon
  TGI: > 100 µM
MALME-3M melanoma
  TGI: > 100 µM
OVCAR-4 ovarian
  TGI: > 100 µM
SF-268 CNS
  TGI: > 100 µM
HCT-15 colon
  TGI: > 100 µM
